For this assay, the target named is MutS (Pseudomonas aeruginosa, UniProt Q9HY08). The experiment in a line: biochemical.
Sequence of MutS (Q9HY08 whole entry): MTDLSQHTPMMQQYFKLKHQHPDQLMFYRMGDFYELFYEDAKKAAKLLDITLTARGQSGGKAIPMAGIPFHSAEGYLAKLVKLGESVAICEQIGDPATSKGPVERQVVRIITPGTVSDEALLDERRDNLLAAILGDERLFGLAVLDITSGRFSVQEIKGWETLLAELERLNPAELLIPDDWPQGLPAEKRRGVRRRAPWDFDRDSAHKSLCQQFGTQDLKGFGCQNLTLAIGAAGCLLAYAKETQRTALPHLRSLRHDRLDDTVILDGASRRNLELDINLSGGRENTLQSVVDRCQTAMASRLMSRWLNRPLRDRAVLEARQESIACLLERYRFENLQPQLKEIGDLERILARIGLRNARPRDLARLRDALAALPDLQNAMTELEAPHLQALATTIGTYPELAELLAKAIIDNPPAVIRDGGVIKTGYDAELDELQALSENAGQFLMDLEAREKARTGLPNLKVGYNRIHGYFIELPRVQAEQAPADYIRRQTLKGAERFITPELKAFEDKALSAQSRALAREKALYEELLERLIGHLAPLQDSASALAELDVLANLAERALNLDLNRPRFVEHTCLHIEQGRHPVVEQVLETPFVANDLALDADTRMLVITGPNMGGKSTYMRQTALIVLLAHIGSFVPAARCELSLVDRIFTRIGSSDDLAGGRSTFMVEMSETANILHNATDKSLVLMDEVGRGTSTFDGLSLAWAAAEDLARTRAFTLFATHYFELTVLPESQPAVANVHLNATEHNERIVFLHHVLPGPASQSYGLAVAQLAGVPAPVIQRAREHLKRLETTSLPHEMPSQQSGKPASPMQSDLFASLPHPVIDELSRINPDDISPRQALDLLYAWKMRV

Consider `Nc1ncnc2c1ncn2[C@@H]1O[C@H](COP(=O)(O)OP(=O)(O)OP(=O)(O)O)[C@@H](O)[C@H]1O` [ATP], for which the EC50 is 618 ± 49 µM.

The record behind these values is publication doi:10.1101/2020.05.01.070730v2 (biorxiv, 2021).
